# According to ChEMBL document CHEMBL1150097, “Majapolene A, a cytotoxic peroxide, and related sesquiterpenes from the red alga Laurencia majuscula” (1995):
# Experiment: Cytotoxicity against human NCI60 cells
# Type: functional
smiles,measurement,setting,value
CC1(C)CC(C23C=CC(CO)(CC2)OO3)CCC1Br (mixture of isomers) [MAJAPOLENE A],GI50,,400 nM
same,TGI,,900 nM
same,CC50,read-out: LC50 (the source's name),2800 nM
